One experiment concerns SH-SY5Y cells. As to the kind of experiment: Reactive oxygen species measurement experiment (OxiSelect Intracellular ROS assay kit). The format is cell-based. As to conditions: 12.56 μM with amyloid β protein 5 μM, 1 h. How it is done:
Specifically, OxiSelect™ Intracellular ROS assay kit (Cell Biolabs Ink) was used to measure the reactive oxygen species level according to protocol recommended by Cell Biolabs Ink (URL: https://www.cellbiolabs.com/sites/default/files/STA-342-ROS-assay-kit.pdf)) of Cell Biolabs Ink Co., Ltd. (designated as “Control” in FIG. 10).
Each well of a 96-well plate (BD Biocoat) was seeded with SH-SY5Y cells (ATCC, model of neuronal cells) at a concentration of 2×10^5 cells/mL (100 μL/well) and the cells cultured at 37° C. and 5% CO2 for 24 h. Culture medium used was F12/DMEM (Gibco) supplemented with 1% non-essential amino acids (Gibco), 15% FBS (Bio West), and 1% penicillin/streptomycin (Lonza).
After 24 h, the culture medium was completely removed with an aspirator, 20×DCFH-DA (reagent included in the assay kit) was mixed with culture medium Opti-MEM (Gibco) (reagent was diluted 20 times), 100 μL of the mixture was added to each well, and the cells were cultured at 37° C. and 5% CO2 for 1 h. The culture medium Opti-MEM with 20×DCFH-DA was then completely removed with an aspirator, […] of fresh Opti-MEM (Gibco) was added to each well, and the cells were cultured at 37° C. and 5% CO2 for 1 h. […] Fluorescence at 480 nm/530 nm was measured on a microplate reader (Sumitomo Dainippon Pharma) to find the relative ROS production (designated as “Control” in FIG. 10). […]

In experiment [1] the test system is senescence-accelerated mice (SAMP8). As to the kind of experiment: Animal experiment: Morris water maze test (platform test, probe test). The format is in vivo. As to conditions: SAMP8, oral, 30 days, 2.17 mg malvidin-3,5-diglucoside/kg/day. How it is done:
Mice and administration regimens used in the experiment are as described below. Breeding conditions are common to all groups.
Compound (M3,5G)-treated (SAMP8) group: Sample 5 was orally administered to 10 senescence-accelerated mice (SAMP8) (16 weeks old, weighing 28-30 g, Japan SLC, Inc.) for a period of 30 days at a daily dose of 2.17 mg of malvidin-3,5-diglucoside per kg of mouse body weight (designated as “Senescence-accelerated mice+Compound (M3,5G)” in FIGS. 11 to 13).
Extract-treated (SAMP8) group: Sample 4 was orally administered to 10 senescence-accelerated mice (SAMP8) (16 weeks old, weighing 28-30 g, Japan SLC, Inc.) for a period of 30 days at a daily dose of 25 mg of extract powder (2.17 mg of malvidin-3,5-diglucoside in […]) per kg of mouse body weight (designated as “Senescence-accelerated mice+Extract” in FIGS. 11 to 13). […]
Mice were released into the pool and the time taken for the mice to arrive at the platform was measured. […]
On the last day of the test, the platform was removed from the pool and the mice were again released into the pool. The number of times the mouse crossed the former platform location was counted and the time the mouse spent on the former platform location was measured.

The structures appear in SMILES notation.

Regarding `COc1cc(-c2[o+]c3cc(O)cc(OC4OC(CO)C(O)C(O)C4O)c3cc2OC2OC(CO)C(O)C(O)C2O)cc(OC)c1O` (stereo not drawn) [M3,5G, Malvidin-3,5-diglucoside chloride], the ROS production result in the experiment with SH-SY5Y cells (compared to “Aβ”) is “significant reductions”; in the experiment on SH-SY5Y cells (compared to “Control”), “no significance”. Also, the “learn and memory ability of animals” value in experiment [1] is “improvements”.
